We go through one compound from PMC5679629, “Flavin-containing monooxygenase 3 (FMO3) role in busulphan metabolic pathway” (PLoS ONE, 2017).

For one data set, the target named is T1, CYP4A11 (Homo sapiens, UniProt Q02928).
T1 construct: purchased BD Biosciences; host or cells: baculovirus infected insect cells
T1 sequence (Q02928 5-519): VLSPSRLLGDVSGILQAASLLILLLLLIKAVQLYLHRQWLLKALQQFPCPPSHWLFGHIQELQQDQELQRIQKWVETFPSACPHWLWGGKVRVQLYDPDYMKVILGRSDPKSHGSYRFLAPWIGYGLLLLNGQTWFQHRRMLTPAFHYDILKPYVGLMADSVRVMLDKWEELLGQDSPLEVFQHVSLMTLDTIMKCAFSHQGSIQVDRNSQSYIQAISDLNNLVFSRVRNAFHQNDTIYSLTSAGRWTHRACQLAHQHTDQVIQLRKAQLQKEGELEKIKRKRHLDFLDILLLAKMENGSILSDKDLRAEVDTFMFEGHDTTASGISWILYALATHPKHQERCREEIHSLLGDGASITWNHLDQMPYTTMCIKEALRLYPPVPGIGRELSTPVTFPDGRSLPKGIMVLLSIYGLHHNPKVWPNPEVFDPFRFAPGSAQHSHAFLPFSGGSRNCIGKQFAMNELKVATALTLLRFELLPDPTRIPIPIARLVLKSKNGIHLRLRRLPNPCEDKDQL
Nature of the data set: THT disappearance with recombinant cDNA-expressed enzyme microsomes. In kind it is in vitro ADME. Conditions: 25μM THT, 35pmol CYP/mL. As for the experimental part:
(§1) To identify the enzymes involved in Bu metabolism, 11 microsomal batches (BD Biosciences, Stockholm, Sweden), each containing a separate cDNA-expressed enzyme, were incubated with 25μM THT. The microsomes contained FMO3, CYP1A1, CYP1A2, CYP2B6, CYP2C8, CYP2C9, CYP2C19, CYP2D6, CYP2E1, CYP3A4 or CYP4A11. Time curves (0, 5, 15, 30 and 60min) were performed at a concentration of 0.35mg protein /mL for FMO3 and 35pmol CYP/mL for the CYP enzymes. The recombinant enzymes were produced from human cDNA expressing each of them using baculovirus expression system. Baculovirus infected insect cells were used to prepare these microsomes.
(§2) Incubations were performed in triplicate and negative controls (excluding NADPH, microsomes, THT or by terminating the incubations before the addition of NADPH) were run in parallel.
(§3) To measure THT and the secondary metabolite, sulfolane, the reactions were terminated by adding dichloromethane. Samples (180μL) were added to 10μM nicotine (20μL, Merck, Hoherbrunn, Germany), used as an internal standard, before extraction. The matrix was extracted by liquid-liquid extraction with dichloromethane (equal volumes, 200μL) after 30 sec of high speed vortexing. After extraction and centrifugation at 16000 g for 10 min, the organic phase was transferred into GC-MS tubes. […] Samples (180μL) were added to 10 μM of 3-methylsulfolane (20μL, TCI, Tokyo, Japan), used as an internal standard. The matrix was lyophilized (< 1 mbar at 40°C under N2 stream) to dryness, the residue was dissolved in 10 μL water and 200 μL of ethyl acetate was added for extraction. Samples were vortexed for 30 sec at high speed and centrifuged at 16000 g for 10 min. The organic phase was transferred to GC-MS tubes.
(§4) Concentrations of THT and its metabolites were measured using GC-MS [18] after validation for use with microsomal incubations according to the international guidelines.

For another data set, the target named is T2, CYP2C19 (Homo sapiens, UniProt P33261).
T2 construct: purchased BD Biosciences; host or cells: baculovirus infected insect cells
The description is as above. In kind it is in vitro ADME. Conditions: 25μM THT, 35pmol CYP/mL. As for the experimental part:
as §1, §2, §3, §4

The target of a further data set is T3, CYP2D6 (Homo sapiens, UniProt P10635).
T3 construct: purchased BD Biosciences; host or cells: baculovirus infected insect cells
Described as above. In kind it is in vitro ADME. Conditions: 25μM THT, 35pmol CYP/mL. As for the experimental part: as §1, §2, §3, §4

A further data set concerns the target T4, CYP2C9 (Homo sapiens, UniProt P11712).
T4 construct: purchased BD Biosciences; host or cells: baculovirus infected insect cells
The description is as above. In kind it is in vitro ADME. Conditions: 25μM THT, 35pmol CYP/mL. As for the experimental part: as §1, §2, §3, §4

Data set [1] can be described thus: Busulphan and THT plasma kinetics in a patient treated concomitantly with voriconazole. Conditions: Bu 2mg/kg b.i.d. with concomitant voriconazole. In kind it is in vivo, human. As for the experimental part: In order to confirm the contribution of FMO3 to human Bu kinetics, blood samples were collected (routinely) from a patient who underwent stem cell transplantation and was conditioned according to the hospital transplantation protocol i.e. high dose of Bu (2mg/kg b.i.d.) for four days followed with two days of cyclophosphamide (60mg/kg). […] Voriconazole was administered, according to the hospital clinical protocol, for the treatment of an acute fungal infection.
Samples were taken for therapeutic drug monitoring (TDM) at several time points after the first, third and fifth doses. Blood was collected into EDTA vacutainer tubes, plasma was separated by centrifugation at 1200 g and stored at -20°C until analysis of Bu and THT [18].

T4 sequence (P11712 whole entry): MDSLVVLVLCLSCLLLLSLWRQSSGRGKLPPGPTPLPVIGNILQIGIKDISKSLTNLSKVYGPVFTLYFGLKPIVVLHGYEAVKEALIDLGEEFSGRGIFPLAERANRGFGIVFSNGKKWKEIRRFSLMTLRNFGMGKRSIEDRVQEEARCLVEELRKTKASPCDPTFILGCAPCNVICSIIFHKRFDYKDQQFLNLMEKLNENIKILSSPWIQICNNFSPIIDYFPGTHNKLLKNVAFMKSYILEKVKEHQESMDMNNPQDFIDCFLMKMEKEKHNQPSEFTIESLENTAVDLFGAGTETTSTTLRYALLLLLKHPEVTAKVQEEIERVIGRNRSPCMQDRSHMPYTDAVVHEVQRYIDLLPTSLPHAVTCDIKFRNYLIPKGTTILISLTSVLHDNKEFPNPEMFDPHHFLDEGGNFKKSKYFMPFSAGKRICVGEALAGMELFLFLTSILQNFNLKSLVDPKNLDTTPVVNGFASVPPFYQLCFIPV
T3 sequence (P10635 whole entry): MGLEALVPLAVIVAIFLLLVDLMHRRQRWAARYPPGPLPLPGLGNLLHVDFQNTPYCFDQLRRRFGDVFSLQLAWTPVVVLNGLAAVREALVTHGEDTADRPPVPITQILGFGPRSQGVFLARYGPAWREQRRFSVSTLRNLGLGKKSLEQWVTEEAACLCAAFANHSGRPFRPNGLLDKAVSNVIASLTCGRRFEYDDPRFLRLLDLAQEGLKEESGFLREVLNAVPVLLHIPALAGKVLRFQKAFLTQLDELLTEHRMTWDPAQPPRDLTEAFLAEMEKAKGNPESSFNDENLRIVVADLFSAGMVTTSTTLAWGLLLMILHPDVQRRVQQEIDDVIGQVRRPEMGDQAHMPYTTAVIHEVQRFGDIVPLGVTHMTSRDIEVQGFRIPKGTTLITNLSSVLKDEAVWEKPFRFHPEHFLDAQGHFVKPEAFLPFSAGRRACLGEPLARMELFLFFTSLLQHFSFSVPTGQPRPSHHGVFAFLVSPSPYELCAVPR
T2 sequence (P33261 whole entry): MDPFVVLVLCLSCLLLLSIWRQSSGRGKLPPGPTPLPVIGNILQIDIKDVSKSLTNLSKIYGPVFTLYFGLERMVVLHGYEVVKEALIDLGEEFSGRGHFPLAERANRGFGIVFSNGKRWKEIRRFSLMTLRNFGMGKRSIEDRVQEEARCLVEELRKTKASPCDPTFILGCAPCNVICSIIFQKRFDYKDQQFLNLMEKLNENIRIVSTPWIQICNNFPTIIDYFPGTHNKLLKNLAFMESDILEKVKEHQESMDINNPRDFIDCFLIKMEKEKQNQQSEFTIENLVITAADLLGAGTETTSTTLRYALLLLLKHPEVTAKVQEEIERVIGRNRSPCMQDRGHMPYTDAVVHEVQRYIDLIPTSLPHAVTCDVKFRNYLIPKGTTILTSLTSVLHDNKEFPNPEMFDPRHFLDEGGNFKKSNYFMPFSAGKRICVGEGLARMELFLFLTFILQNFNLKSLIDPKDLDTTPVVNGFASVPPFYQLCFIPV

Consider `C1CCSC1` [THT, tetrahydrothiophene], for which the v0 is 2.52 nmol/min/mL on CYP4A11, 1.51 nmol/min/mL on CYP2C19, 2.24 nmol/min/mL on CYP2D6 and 1.64 nmol/min/mL at CYP2C9. The v0/CYP on CYP4A11 stood at 0.07 nmol/min/pmol CYP; on CYP2C19, 0.04 nmol/min/pmol CYP; on CYP2D6 it was 0.06 nmol/min/pmol CYP; at CYP2C9 it was 0.05 nmol/min/pmol CYP. Besides, in data set [1], the “THT concentrations versus Bu alone” value is recorded as “higher concentrations than with Bu alone”. In data set [1], the “time at which THT was detected after the first dose of Bu” value is listed as 1 h.
